12 compounds from ChEMBL document CHEMBL1132603 can be followed below.

Where only a bound is given, the exact number is not on record here.

The target of assay [1] is D(1A) dopamine receptor (Rattus norvegicus) (UniProt P18901). The assay is described as follows: Inhibition of [3H]SCH-23390 binding to rat striatal membrane Dopamine receptor D1.
The target in assay [2] is D(2) dopamine receptor (Rattus norvegicus) (UniProt P61169). The experiment in a line: Affinity on C6 glioma cells transfected with Dopamine receptor D2L. It is filed as cell-based.
For assay [3] the target is unchanged. The assay is described as follows: Inhibition of [3H]spiperone binding to rat striatal membrane Dopamine receptor D2.
The target of assay [4] is D(3) dopamine receptor (Rattus norvegicus) (UniProt P19020). The note with it: C6.
Sequence of D(3) dopamine receptor (Rattus norvegicus) (P19020 whole entry): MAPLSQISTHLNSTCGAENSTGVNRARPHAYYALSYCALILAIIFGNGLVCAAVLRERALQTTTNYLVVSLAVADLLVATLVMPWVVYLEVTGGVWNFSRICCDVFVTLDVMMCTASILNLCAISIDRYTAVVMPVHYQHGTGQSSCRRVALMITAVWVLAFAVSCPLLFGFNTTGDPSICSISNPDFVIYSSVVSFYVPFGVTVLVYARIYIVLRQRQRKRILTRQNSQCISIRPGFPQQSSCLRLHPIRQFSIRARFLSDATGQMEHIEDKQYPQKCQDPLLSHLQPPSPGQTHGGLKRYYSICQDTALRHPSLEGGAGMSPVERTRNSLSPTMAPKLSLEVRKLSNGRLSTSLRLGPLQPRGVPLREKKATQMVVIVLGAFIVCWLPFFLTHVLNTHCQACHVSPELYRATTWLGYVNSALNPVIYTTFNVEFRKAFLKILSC
Description: Affinity on C6 glioma cells transfected with Dopamine receptor D3

Sequence of D(1A) dopamine receptor (Rattus norvegicus) (P18901 whole entry): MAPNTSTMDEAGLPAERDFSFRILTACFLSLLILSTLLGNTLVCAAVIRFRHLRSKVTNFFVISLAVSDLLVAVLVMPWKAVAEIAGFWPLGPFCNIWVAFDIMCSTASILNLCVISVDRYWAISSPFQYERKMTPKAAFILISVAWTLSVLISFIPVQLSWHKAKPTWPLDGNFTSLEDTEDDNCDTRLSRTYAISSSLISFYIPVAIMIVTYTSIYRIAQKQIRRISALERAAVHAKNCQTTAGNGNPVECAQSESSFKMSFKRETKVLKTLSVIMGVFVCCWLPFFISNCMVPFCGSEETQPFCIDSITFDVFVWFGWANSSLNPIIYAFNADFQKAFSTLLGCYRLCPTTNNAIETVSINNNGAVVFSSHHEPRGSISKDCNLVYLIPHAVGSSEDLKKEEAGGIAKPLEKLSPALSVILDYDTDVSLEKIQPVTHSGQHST
Sequence of D(2) dopamine receptor (Rattus norvegicus) (P61169 whole entry): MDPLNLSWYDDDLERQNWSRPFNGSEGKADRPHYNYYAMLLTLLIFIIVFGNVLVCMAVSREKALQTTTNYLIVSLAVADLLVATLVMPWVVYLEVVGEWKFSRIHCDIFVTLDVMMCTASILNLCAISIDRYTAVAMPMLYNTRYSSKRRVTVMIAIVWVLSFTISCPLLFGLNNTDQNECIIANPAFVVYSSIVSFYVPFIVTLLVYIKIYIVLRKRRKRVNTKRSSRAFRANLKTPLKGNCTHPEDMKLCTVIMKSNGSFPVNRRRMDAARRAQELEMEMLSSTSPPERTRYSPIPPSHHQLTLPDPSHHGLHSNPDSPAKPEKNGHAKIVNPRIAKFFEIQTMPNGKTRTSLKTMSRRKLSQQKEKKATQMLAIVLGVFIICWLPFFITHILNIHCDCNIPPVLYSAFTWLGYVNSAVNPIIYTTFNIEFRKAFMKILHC

For the compound `CCCN1Cc2ccccc2[C@@H]2Cc3nc(N)ncc3C[C@H]21`, the K 0.5 in assay [1] was more than 5 µM; in assay [2], more than 5000 nM; in assay [3], 45 nM; in assay [4] it was 20.2 nM.
In the case of `c1ccc2c(c1)CN[C@@H]1Cc3c[nH]nc3C[C@@H]21`, the K 0.5 in assay [1] is more than 5 µM; in assay [2], more than 5000 nM; in assay [3], 641 nM; in assay [4], 955 nM.
In the case of `CCCN1CCC[C@@H]2Cc3nc(N)ncc3C[C@H]21`, the K 0.5 was more than 5 µM in assay [1], 710 nM in assay [2] and 4.78 nM in assay [3].
Consider `O=C(CCCN1CCC2(CC1)C(=O)NCN2c1ccccc1)c1ccc(F)cc1`, for which the K 0.5 stood at 0.16 nM in assay [2] and 0.21 nM in assay [3].
As for `CN1Cc2ccccc2[C@@H]2Cc3n[nH]cc3C[C@H]21`, the K 0.5 in assay [1] was more than 5 µM; in assay [2], 3090 nM; in assay [3], 189 nM; in assay [4] it was 187 nM.
Taken in the same sequence, the figures for `C=CCN1Cc2ccccc2[C@@H]2Cc3nc(N)ncc3C[C@H]21` were more than 5 µM, more than 5000 nM, 102 nM and 15.8 nM.
The compound `Oc1ccc2c(c1O)Cc1cccc3c1[C@H]2CNC3` registered a K 0.5 in assay [2] of 174 nM.
With `C=CCN1Cc2ccccc2[C@@H]2Cc3n[nH]cc3C[C@H]21`, the K 0.5 in assay [1] is more than 5 µM; in assay [2], 1880 nM; in assay [3], 100 nM; in assay [4], 73.7 nM.
Taken in the same sequence, the figures for `CCCN1Cc2ccccc2[C@@H]2Cc3n[nH]cc3C[C@H]21` were more than 5 µM, 4300 nM, 209 nM and 162 nM.
As for `CN1CCc2cc(Cl)c(O)cc2[C@@H](c2ccccc2)C1`, the K 0.5 in assay [1] turned out to be 0.0004 µM.
`Nc1ncc2c(n1)C[C@H]1c3ccccc3CN[C@@H]1C2`: the K 0.5 in assay [1] was more than 5 µM; in assay [3] it was 467 nM; in assay [4], 324 nM.
For the compound `Oc1cc2c(cc1O)[C@H]1c3ccccc3CN[C@@H]1CC2`, the figures for the K 0.5 in assay [2] and in assay [4] were 1490 nM and 170 nM, respectively.
